For the data set the following is noted: Liquid; for Critical pressure: Direct measurement; for Critical temperature: Visual observation in an unstirred cell.

Molecules are shown by their SMILES. ± gives the expanded uncertainty stated by the source.

As to `CCO` [ethanol], the Critical pressure is on record as 6135 ± 31 kPa and the Critical temperature was 514.2 ± 2.4 K.

As for `CO` [methanol], the Critical pressure came to 8128 ± 31 kPa and the Critical temperature is given as 512.3 ± 2.4 K.

Consider `CCCCCCC` [heptane], for which the Critical pressure amounted to 2761 ± 31 kPa and the Critical temperature turned out to be 540 ± 2.4 K.

Take `CCCO` [propan-1-ol]: the Critical pressure turned out to be 5172 ± 31 kPa and the Critical temperature was 537 ± 2.4 K.

The values are drawn from the NIST ThermoML archive (doi:10.1016/j.jct.2014.01.025).
